Assay results as given in paper PMC8476755 (Frontiers in Chemistry, 2021).
Where two headings read alike, the source gives them in different places.

Experiments:
BGT1 = test system: BGT1; parameters: method as in Kobayashi et al., 2014; conditions: ref Kobayashi et al., 2014, cited from earlier work
BGT1 Q299L = biological target: T1, BGT1 Q299L (Homo sapiens, UniProt P48065, Q299L); assay: [3H]GABA uptake assay, transient expression in tsA201 cells; type: cell-based; conditions: for IC50: BGT1 Q299L, tsA201 cells
T1 construct: expressed in transfected cells; host or cells: tsA201 (transformed HEK293), transient
T1 sequence (P48065 1-614 Q299L): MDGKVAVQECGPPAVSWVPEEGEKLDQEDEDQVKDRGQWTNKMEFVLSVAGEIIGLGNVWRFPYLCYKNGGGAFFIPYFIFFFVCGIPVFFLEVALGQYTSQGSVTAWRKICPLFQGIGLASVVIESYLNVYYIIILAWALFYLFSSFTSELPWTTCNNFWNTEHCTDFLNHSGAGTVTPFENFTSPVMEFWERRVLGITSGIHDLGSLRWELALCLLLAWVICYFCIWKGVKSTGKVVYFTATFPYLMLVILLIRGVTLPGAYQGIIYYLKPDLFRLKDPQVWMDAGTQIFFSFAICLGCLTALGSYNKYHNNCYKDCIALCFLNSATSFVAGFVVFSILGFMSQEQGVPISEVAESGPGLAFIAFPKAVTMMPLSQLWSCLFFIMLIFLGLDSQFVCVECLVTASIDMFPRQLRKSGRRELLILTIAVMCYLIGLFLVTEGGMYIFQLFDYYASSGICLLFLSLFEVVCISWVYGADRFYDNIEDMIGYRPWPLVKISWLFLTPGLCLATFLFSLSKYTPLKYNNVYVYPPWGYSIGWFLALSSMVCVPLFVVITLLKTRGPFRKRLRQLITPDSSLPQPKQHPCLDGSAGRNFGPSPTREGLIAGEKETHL
Description: The residue Q299 in human BGT1 corresponds to leucine in all other GATs (human, rat, mouse), while E52 corresponds to tyrosine in GAT1 (human, rat, mouse) but is conserved among GAT2, GAT3 and BGT1 (human, rat, mouse) (Figure 6A) ([Kickinger et al., 2019]).
FIGURE 6 (A) Pocket alignment of the orthosteric site of the four GAT subtypes colored according to the default ClustalX color scheme ([Larkin et al., 2007]). The pocket was defined as all corresponding GAT residues (15 in total) that are within a distance of 4.5 Å of the co-crystallized ligand leucine in the homologous LeuT crystal structure (PDB ID 2A65) ([Yamashita et al., 2005]) according to the alignment by Kickinger et al. ([Kickinger et al., 2019]). The mutated residues in BGT1 and the corresponding residues in GAT1-3 are indicated by a red box. The numbering of all residues within the orthosteric pocket can be found in the Supplementary Table S1.
The tsA201 cell line (a transformed HEK293 cell line), the Flp-In CHO cell lines stably expressing human (h) GATs and the HEK293 cell line stably expressing human α1β2γ2 GABAA receptors have been described previously and were cultured accordingly ([Al-Khawaja et al., 2014]; [Falk-Petersen et al., 2020]). The tsA201 cell line used for transient expression of hGATs was transfected with DNA constructs (8 μg per 10 cm plate) using 40 μL PolyFect transfection reagent according to the manufacturer’s protocol (Qiagen).
Briefly, cells were seeded in white 96-well plates (White Opaque Tissue Culture (TC) plated 96-well Microplate) pre-coated with PDL. Medium was removed on the following day and cells washed with 100 µL/well assay buffer (HBSS supplemented with 20 mM HEPES, 1 mM CaCl2 and 1 mM MgCl2, pH 7.4). […] The cells were washed 3 times with 100 µL/well ice-cold assay buffer, 150 µL/well MicroScint™20 was subsequently added before the plate was shaken for at least 1 h. The plate was counted in a Packard TopCounter microplate scintillation counter (PerkinElmer) for 3 min per well. […] Data presented is the pooled data of at least three independent experiments with three technical replicates if not stated otherwise in figure legends. Concentration–response curves were fitted by non-linear regression to the sigmoidal concentration-response model with GraphPad Prism (version 9.0.0, GraphPad Software, San Diego, CA, United States) as described ([Lie et al., 2020]).

Decrease in inhibitory activity compared to wildtype (BGT1 Q299L; BGT1 Q299L vs BGT1 wt) [times]	IC50 (BGT1 Q299L; read-out: IC50) [µM]	IC50 (BGT1 Q299L; read-out: pIC50 ± S.E.M. (converted)) [µM]	SMILES	IC50 (BGT1; BGT1 inhibition) [µM]	Higher activity for BGT1 compared to 1 (BGT1) [times]	Higher activity for BGT1 than GAT3 (BGT1; subtype-selectivity BGT1 vs GAT3) [times]
32	48		N[C@@]12CC[C@H](C(=O)O)[C@@H]1C2 [bicyclo-GABA, (1S,2S,5R)-5-aminobicyclo[3.1.0]hexane-2-carboxylic acid]	0.59	9	129
	59	50.1	CN[C@@]12CC[C@H](C(=O)O)[C@@H]1C2 [compound 2]			
